Results: PMC8357487 (Current Research in Pharmacology and Drug Discovery, 2021)
Like-named read-outs stand apart in the source and are kept apart here.

Assays:
[1] = Cytotoxicity, MTS method, Calu-3; assay type: cell-based; conditions: human, Calu-3 cells
[2] = test system: SARS-CoV-2; test: microbe, parasite or virus in culture; assay type: cell-based
[3] = Cytotoxicity, MTS method, Caco-2; assay type: cell-based; conditions: human, Caco-2 cells
[4] = Cytotoxicity, MTS method, Huh-7; assay type: cell-based, human; conditions: human, Huh-7 cells
[5] = test system: SARS-CoV-2; conditions: Caco-2 cells; ref Li et al., 2021a; cited from earlier work
[6] = Cytotoxicity, MTS method, Vero CCL-81; assay type: cell-based; conditions: African monkey, Vero CCL-81 cells
[7] = test system: icSARS-CoV-2-mNG; test: microbe, parasite or virus in culture; assay type: cell-based, SARS-CoV-2; conditions: for EC50: Severe acute respiratory syndrome coronavirus 2, Caco-2, 48 h, read-out: mean EC50, icSARS-CoV-2-mNG inhibition assay
[8] = monkeys; ref Warren et al., 2016; cited from earlier work
[9] = humans; ref Humeniuk et al., 2020; cited from earlier work
[10] = test system: Huh-7 cells; test: Cytotoxicity, MTS method, Huh-7; assay type: cell-based, human; conditions: MTS
[11] = Severe acute respiratory syndrome coronavirus 2, 48 h
[12] = Severe acute respiratory syndrome coronavirus 2, Caco-2, 72 h
[13] = Severe acute respiratory syndrome coronavirus 2, Calu-3, 72 h

SMILES	CC50 [1] [nM]	EC50 [2, 11] [nM]	EC90 [2, 11] [nM]	EC50 [2, 12] [nM]	EC90 [2, 12] [nM]	EC50 [2, 13] [nM]	EC90 [2, 13] [nM]	CC50 [3] [nM]	CC50 [4] [nM]	Difference in EC50 between GS-441524 and remdesivir [5] [fold]	CC50 [6] [nM]	EC50 difference of GS-441524 compared to remdesivir, icSARS-CoV-2-mNG assay ([7]; Caco-2 cells) [fold]	EC50 [7] [nM]	plasma half-life [8]	plasma half-life [9] [h]	Cytotoxicity in words [10]
N#C[C@@]1(c2ccc3c(N)ncnn23)O[C@H](CO)[C@@H](O)[C@H]1O [GS-441524]	> 100000	800	1600	80	1420	250	2350	> 100000	> 100000	6	> 100000	70	1300			
CCC(CC)COC(=O)[C@H](C)N[P@](=O)(OC[C@H]1O[C@@](C#N)(c2ccc3c(N)ncnn23)[C@H](O)[C@@H]1O)Oc1ccccc1 [Remdesivir]	72800	700	1700	1	22	110	490	> 100000	2100				18	about 0.4 h	~1	quite toxic
